# According to US20060069132A1, “Azolecarboxamide herbicides” (priority 2004, published 2006):
# What was measured:
# [1] = test system: soybean; assay: Test C pre-/postemergence herbicide test; format: in vivo, Glycine max
# In short: (§1)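 Pre- and postemergence application, solvent/surfactant formulation; post at 1- to 4-leaf stage (2–18 cm). Greenhouse 12–14 d. Visual rating vs controls, 0 = no effect, 100 = complete control.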
# [2] = test system: morningglory; assay: Test A pre-/postemergence herbicide test; format: in vivo, Ipomoea spp.
# In short: (§2)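 Visual injury rating on a 0–100 scale (0 no effect, 100 complete control) versus untreated controls, about ten days after treatment in greenhouse. Pre: directed soil spray onto seeded sandy loam. Post: spray to runoff on plants 2–10 cm tall at one- to two-leaf stage.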
# [3] = test system: common (oilseed) sunflower; assay: Test C pre-/postemergence herbicide test; format: in vivo, Helianthus annuus; conditions: for Plant response rating, Sunflower / Plant response rating (0 = no effect, 100 = complete control), Sunflower: preemergence
# In short: as §1
# [4] = test system: barnyardgrass; assay: Test C flooded paddy test; format: in vivo, Echinochloa crus-galli; conditions: for Plant response rating, Barnyardgrass: visual rating after 12 to 14 days
# In short: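 Weeds and wheat were sprayed after emergence, at a height of 2 to 18 cm (1–4 leaves), and paddy barnyardgrass was flooded and treated at two leaves. Assessment took place 12–14 days later in the greenhouse on a 0-to-100 visual control scale. A dash means no result was obtained.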
# [5] = test system: lambsquarters; assay: Test C pre-/postemergence herbicide test; format: in vivo, Chenopodium album
# In short: as §1
# [6] = test system: ducksalad; assay: Test C flooded paddy test; format: in vivo, Heteranthera limosa; conditions: for Plant response rating, Ducksalad: visual rating after 12 to 14 days
# [7] = test system: cocklebur; assay: Test C pre-/postemergence herbicide test; format: in vivo, Xanthium strumarium
# In short: as §1
# [8] = test system: velvetleaf; assay: Test C pre-/postemergence herbicide test; format: in vivo, Abutilon theophrasti
# In short: as §1
# [9] = test system: velvetleaf; assay: Test A pre-/postemergence herbicide test; format: in vivo, Abutilon theophrasti
# In short: as §2
# [10] = test system: yellow nutsedge; assay: Test C pre-/postemergence herbicide test; format: in vivo, Cyperus esculentus
# In short: as §1
# [11] = test system: goosegrass; assay: Test C pre-/postemergence herbicide test; format: in vivo, Eleusine indica
# In short: as §1
# [12] = 62 g ai/ha, preemergence, scale 0 to 100
# [13] = 250 g ai/ha, scale 0-100, preemergence
# [14] = 500 g ai/ha, scale 0 to 100 (0 no effect, 100 complete control), visual, 12 to 14 days, preemergence
# [15] = Postemergence, 500 g ai/ha, 0 to 100 scale, 0 no effect, 100 complete control
# [16] = Postemergence, 2000 g ai/ha, 0 to 100 scale, 0 no effect, 100 complete control
# [17] = Preemergence, 2000 g ai/ha, visual rating, 0 to 100 scale (0 no effect, 100 complete control)
# [18] = preemergence, 500 g ai/ha, visual injury, 0 to 100 scale (0 no effect, 100 complete control)
# [19] = 500 g ai/ha, scale 0 to 100 (0 no effect, 100 complete control), visual, 12 to 14 days
# [20] = 62 g ai/ha, scale 0 to 100 (0 no effect, 100 complete control)
# [21] = 125 g ai/ha, scale 0 to 100 (0 no effect, 100 complete control)
# [22] = 250 g ai/ha, scale of 0 to 100, 0 is no effect, 100 is complete control
# [23] = 500 g ai/ha, scale 0 to 100 (0 no effect, 100 complete control)
# [24] = 125 g ai/ha, scale 0 (no effect) to 100 (complete control), visual, 12 to 14 days, preemergence
# [25] = Preemergence, 500 g ai/ha, scale 0 to 100, 0 no effect, 100 complete control
# [26] = 250 g ai/ha, scale 0 to 100 (0 no effect, 100 complete control), visual, 12 to 14 days, preemergence
# [27] = Postemergence, 500 g ai/ha, scale 0 to 100
# [28] = Postemergence, 250 g ai/ha, scale 0 to 100, 0 no effect, 100 complete control
# [29] = postemergence, 125 g ai/ha, scale 0 to 100
# [30] = postemergence, 62 g ai/ha, scale 0 to 100
# [31] = Postemergence, 250 g ai/ha, 0 to 100 scale, 0 no effect, 100 complete control
# [32] = Postemergence, 1000 g ai/ha, 0 to 100 scale, 0 no effect, 100 complete control
# [33] = Preemergence, 1000 g ai/ha, visual rating, 0 to 100 scale (0 no effect, 100 complete control)
# [34] = preemergence, 250 g ai/ha, visual injury, 0 to 100 scale (0 no effect, 100 complete control)
# [35] = 125 g ai/ha, scale of 0 to 100, 0 is no effect, 100 is complete control
# [36] = 250 g ai/ha, scale 0 to 100 (0 no effect, 100 complete control)
# [37] = 125 g ai/ha, scale 0-100, preemergence
# [38] = Postemergence, 125 g ai/ha, scale 0 to 100, 0 no effect, 100 complete control
smiles,measurement,setting,value
CCNC(=O)c1ccc(F)c(NC(=O)C2CC(C(C)(C)C)=NN2CC)c1 (racemic) [Compound 269],"Plant response rating, Soybean",[1]; [12],0
same,"Plant response rating, Soybean",[1]; [13],50
same,"Plant response rating, Soybean",[1]; [14],60
same,Morningglory plant response rating,[2]; [15],20
same,"Plant response rating, Morningglory",[2]; [16],35
same,Morningglory plant response rating,[2]; [17],30
same,Morningglory plant response rating,[2]; [18],20
same,"Plant response rating, Sunflower","[3]; 62 g ai/ha, scale 0 to 100",0
same,"Plant response rating, Sunflower","[3]; 250 g ai/ha, scale 0-100",5
same,"Plant response rating, Sunflower",[3]; [19],15
same,Barnyardgrass plant response rating,[4]; [20],45
same,Barnyardgrass plant response rating,[4]; [21],65
same,Barnyardgrass plant response rating,[4]; [22],75
same,"Plant response rating, Barnyardgrass",[4]; [23],90
same,"Plant response rating, Lambsquarters",[5]; [12],95
same,"Plant response rating, Lambsquarters",[5]; [24],100
same,"Plant response rating, Lambsquarters",[5]; [13],100
same,"Plant response rating, Lambsquarters",[5]; [14],100
same,Ducksalad plant response rating,"[6]; 62 g ai/ha, scale 0 to 100",55
same,Ducksalad plant response rating,[6]; [21],80
same,Ducksalad plant response rating,[6]; [22],80
same,"Plant response rating, Ducksalad",[6]; [23],85
same,"Plant response rating, Cocklebur",[7]; [12],0
same,"Plant response rating, Cocklebur",[7]; [24],0
same,"Plant response rating, Cocklebur",[7]; [13],5
same,Cocklebur plant response rating,[7]; [25],50
same,"Plant response rating, Velvetleaf",[8]; [12],5
same,"Plant response rating, Velvetleaf",[8]; [13],75
same,"Plant response rating, Velvetleaf",[8]; [14],80
same,Velvetleaf plant response rating,[9]; [15],25
same,"Plant response rating, Velvetleaf",[9]; [16],30
same,Velvetleaf plant response rating,[9]; [17],100
same,Velvetleaf plant response rating,[9]; [18],40
same,"Plant response rating, Nutsedge, Yellow",[10]; [12],5
same,"Plant response rating, Nutsedge, Yellow",[10]; [24],10
same,"Plant response rating, Nutsedge, Yellow",[10]; [13],40
same,"Plant response rating, Nutsedge, Yellow",[10]; [14],60
same,"Plant response rating, Goosegrass",[11]; [12],70
same,"Plant response rating, Goosegrass",[11]; [24],85
same,"Plant response rating, Goosegrass",[11]; [13],95
same,"Plant response rating, Goosegrass",[11]; [14],100
CCNC(=O)c1cccc(NC(=O)c2cc(C(C)(C)C)nn2CC(F)(F)F)c1 [Compound 31],"Plant response rating (0 = no effect, 100 = complete control), Soybean","[1]; 62 g ai/ha, preemergence",0
same,"Plant response rating, Soybean",[1]; [26],10
same,Soybean plant response rating,[1]; [27],80
same,"Plant response rating, Soybean",[1]; [28],70
same,Soybean plant response rating,[1]; [25],20
same,"Plant response rating, Soybean",[1]; [29],50
same,"Plant response rating, Soybean",[1]; [30],30
same,Morningglory plant response rating,[2]; [31],5
same,"Plant response rating, Morningglory",[2]; [32],20
same,Morningglory plant response rating,[2]; [33],55
same,Morningglory plant response rating,[2]; [34],0
same,"Plant response rating (0 = no effect, 100 = complete control), Sunflower",[3]; 62 g ai/ha,0
same,"Plant response rating, Sunflower","[3]; 250 g ai/ha, scale 0 to 100 (0 no effect, 100 complete control), visual, 12 to 14 days",20
same,Sunflower plant response rating,[3]; [25],20
same,Barnyardgrass plant response rating,[4]; [20],0
same,Barnyardgrass plant response rating,[4]; [35],30
same,"Plant response rating, Barnyardgrass",[4]; [36],70
same,"Plant response rating, Barnyardgrass",[4]; [23],75
same,"Plant response rating (0 = no effect, 100 = complete control), Lambsquarters","[5]; 62 g ai/ha, preemergence",90
same,"Plant response rating, Lambsquarters",[5]; [37],100
same,"Plant response rating, Lambsquarters",[5]; [26],100
same,Lambsquarters plant response rating,[5]; [27],90
same,"Plant response rating, Lambsquarters",[5]; [28],90
same,Lambsquarters plant response rating,[5]; [25],100
same,"Plant response rating, Lambsquarters",[5]; [29],80
same,"Plant response rating, Lambsquarters",[5]; [30],80
same,Ducksalad plant response rating,[6]; [20],10
same,Ducksalad plant response rating,[6]; [35],20
same,"Plant response rating, Ducksalad",[6]; [36],40
same,"Plant response rating, Ducksalad",[6]; [23],60
same,"Plant response rating (0 = no effect, 100 = complete control), Cocklebur","[7]; 62 g ai/ha, preemergence",0
same,"Plant response rating, Cocklebur",[7]; [37],20
same,"Plant response rating, Cocklebur",[7]; [26],40
same,Cocklebur plant response rating,[7]; [27],60
same,"Plant response rating, Cocklebur",[7]; [38],40
same,"Plant response rating, Cocklebur",[7]; [28],40
same,"Plant response rating, Cocklebur",[7]; [30],40
same,"Plant response rating (0 = no effect, 100 = complete control), Velvetleaf","[8]; 62 g ai/ha, preemergence",20
same,"Plant response rating, Velvetleaf",[8]; [26],100
same,Velvetleaf plant response rating,[8]; [27],70
same,"Plant response rating, Velvetleaf",[8]; [28],70
same,Velvetleaf plant response rating,[8]; [25],100
same,"Plant response rating, Velvetleaf",[8]; [29],60
same,"Plant response rating, Velvetleaf",[8]; [30],50
same,Velvetleaf plant response rating,[9]; [31],20
same,"Plant response rating, Velvetleaf",[9]; [32],30
same,Velvetleaf plant response rating,[9]; [33],35
same,Velvetleaf plant response rating,[9]; [34],10
same,"Plant response rating (0 = no effect, 100 = complete control), Nutsedge, Yellow","[10]; 62 g ai/ha, preemergence",0
same,"Plant response rating, Nutsedge, Yellow",[10]; [26],0
same,"Nutsedge, Yellow plant response rating",[10]; [27],30
same,"Plant response rating, Nutsedge, Yellow",[10]; [28],30
same,"Nutsedge, Yellow plant response rating",[10]; [25],0
same,"Plant response rating, Nutsedge, Yellow",[10]; [29],0
same,"Plant response rating, Nutsedge, Yellow",[10]; [30],0
same,"Plant response rating (0 = no effect, 100 = complete control), Goosegrass","[11]; 62 g ai/ha, preemergence",30
same,"Plant response rating, Goosegrass",[11]; [37],30
same,"Plant response rating, Goosegrass",[11]; [26],40
same,Goosegrass plant response rating,[11]; [27],40
same,"Plant response rating, Goosegrass",[11]; [38],30
same,"Plant response rating, Goosegrass",[11]; [28],40
same,Goosegrass plant response rating,[11]; [25],90
same,"Plant response rating, Goosegrass",[11]; [30],30
CCc1nn(C(C)C)nc1C(=O)Nc1cccc(C(=S)N(C)C)c1 [Compound 409],"Plant response rating, Soybean",[1]; [12],0
same,"Plant response rating (0 = no effect, 100 = complete control), Soybean","[1]; 125 g ai/ha, preemergence",80
same,"Plant response rating, Soybean",[1]; [14],100
same,"Plant response rating, Sunflower","[3]; 62 g ai/ha, scale 0 to 100",0
same,"Plant response rating (0 = no effect, 100 = complete control), Sunflower",[3]; 125 g ai/ha,5
same,"Plant response rating, Sunflower",[3]; [19],55
same,Barnyardgrass plant response rating,[4]; [20],20
same,Barnyardgrass plant response rating,[4]; [21],20
same,Barnyardgrass plant response rating,[4]; [22],40
same,"Plant response rating, Barnyardgrass",[4]; [23],60
same,"Plant response rating, Lambsquarters",[5]; [12],100
same,"Plant response rating, Lambsquarters",[5]; [13],100
same,"Plant response rating, Lambsquarters",[5]; [14],100
same,Ducksalad plant response rating,"[6]; 62 g ai/ha, scale 0 to 100",30
same,Ducksalad plant response rating,[6]; [21],30
same,Ducksalad plant response rating,[6]; [22],80
same,"Plant response rating, Ducksalad",[6]; [23],85
same,"Plant response rating, Cocklebur",[7]; [12],0
same,"Plant response rating (0 = no effect, 100 = complete control), Cocklebur","[7]; 125 g ai/ha, preemergence",30
same,"Plant response rating, Cocklebur",[7]; [13],70
same,"Plant response rating, Cocklebur",[7]; [14],80
same,"Plant response rating, Velvetleaf",[8]; [12],5
same,"Plant response rating (0 = no effect, 100 = complete control), Velvetleaf","[8]; 125 g ai/ha, preemergence",30
same,"Plant response rating, Velvetleaf",[8]; [14],100
same,"Plant response rating, Nutsedge, Yellow",[10]; [12],0
same,"Plant response rating (0 = no effect, 100 = complete control), Nutsedge, Yellow","[10]; 125 g ai/ha, preemergence",0
same,"Plant response rating, Nutsedge, Yellow",[10]; [14],55
same,"Plant response rating, Goosegrass",[11]; [12],80
same,"Plant response rating (0 = no effect, 100 = complete control), Goosegrass","[11]; 125 g ai/ha, preemergence",90
same,"Plant response rating, Goosegrass",[11]; [13],95
same,"Plant response rating, Goosegrass",[11]; [14],95
